# Measured values published in patent US20230405002A1, “COMBINATIONS OF DIACYLGLYCEROL ACYLTRANSFERASE 2 INHIBITORS AND ACETYL-COA CARBOXYLASE INHIBITOR” (Pfizer Inc., priority 2020, published 2023).
# Structures can show the parent of a compound that is named as a salt.
# Tests used:
# [1] = test system: human hepatocytes; assay: High throughput intrinsic clearance in human hepatocytes; conditions: high throughput human hepatocyte assay, 1 μM
# [2] = test system: human liver microsomes; assay: Intrinsic clearance in human liver microsomes; conditions: human liver microsome assay, 1 μM
# [3] = Determination of pKa (capillary electrophoresis); conditions: most basic pKa, mean
# [4] = molecular target: human DGAT2 (hDGAT2) (Homo sapiens (Human), UniProt Q96PD7); assay: In vitro DGAT2 assay, determination of IC50 values; assay type: biochemical; conditions: geometric mean; hDGAT2 membrane fraction
# [5] = molecular target: DGAT2 in human hepatocytes (Homo sapiens (Human), UniProt Q96PD7); assay: Determination of IC50 values for DGAT2 inhibitors in human hepatocytes; assay type: cell-based; conditions: geometric mean; cryopreserved human hepatocytes, DGAT1 inhibitor 3 μM present
# Protocol: For evaluation of the effects of DGAT2 inhibitors in a cell-based setting, cryopreserved human hepatocytes (Lot DOO, Celsis, Baltimore, MD) were thawed and plated onto type I collagen-coated plates according to the manufacturer's instructions. After 18 hours overnight recovery period, the cells were overlayed with media containing 250 μg/mL Geltrex Basement Membrane Matrix (Thermo Fisher). The following day, media was aspirated and replaced with serum-free Williams Media E (Thermo Fisher) containing 400 μM sodium dodecanoate (Sigma-Aldrich, St. Louis, MO) and 2 mM GlutaMAX (Thermo Fisher). […] DGAT2 inhibitors were then added to the desired final concentration. After a 15 minute preincubation, 0.2 μCi [^14C(U)]-glycerol (Perkin Elmer) was added to each well followed by a 3 hour incubation. At this point the media was removed, and the cells lysed via orbital shaking in isopropyl alcohol: tetrahydrofuran (9:1) for 15 minutes prior to centrifugation at 3000 rpm for 10 minutes. Radiolabeled lipids were resolved using a solvent system by thin layer chromatography with the solvent consisting of hexanes: diethyl ether: glacial acetic acid (75:23:2, v/v/v). After separation, radiolabeled lipids were visualized using the Typhoon 9500 phosphorimaging system (GE). The half maximal inhibitory concentrations (IC50 values) were determined by nonlinear regression analysis of the % inhibition dose response curve using GraphPad Prism (GraphPad Software, Inc., La Jolla, CA).
# Table 12 below provides the IC50 values of selected Examples for inhibition of DGAT2 in human hepatocytes in accordance with the above-described assay. Results are reported as geometric mean IC50 values, with the number of replicates (n) shown.
# DGAT2 in human hepatocytes, sequence (Q96PD7 whole entry): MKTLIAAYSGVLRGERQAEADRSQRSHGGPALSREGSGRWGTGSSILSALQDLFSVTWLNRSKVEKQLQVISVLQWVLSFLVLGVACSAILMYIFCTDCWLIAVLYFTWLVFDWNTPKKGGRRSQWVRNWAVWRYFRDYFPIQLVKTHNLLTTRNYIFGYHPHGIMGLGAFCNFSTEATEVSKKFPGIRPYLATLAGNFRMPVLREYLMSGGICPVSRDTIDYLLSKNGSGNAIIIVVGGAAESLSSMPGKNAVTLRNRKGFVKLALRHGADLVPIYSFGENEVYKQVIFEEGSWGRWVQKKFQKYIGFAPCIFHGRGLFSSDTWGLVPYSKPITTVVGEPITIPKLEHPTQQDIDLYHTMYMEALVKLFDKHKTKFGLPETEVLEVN
# human DGAT2 (hDGAT2), sequence (Q96PD7 whole entry): as above
CLint (+/− STD Dev) [2] [µL/min/mg],IC50 [4] [nM],Structure (SMILES),also measured
34 ± 1.9,240,"CCOc1cccnc1Oc1cncc(-c2ncc(C(=O)N[C@@H]3CNCC(F)(F)C3)cn2)c1 (single isomer, unassigned) [Example 19, N-[(3S)-5,5-difluoropiperidin-3-yl]-2-{5-[(3-ethoxypyridin-2-yl)oxy]pyridin-3-yl}pyrimidine-5-carboxamide or N-[(3R)-5,5-difluoropiperidin-3-yl]-2-{5-[(3-ethoxypyridin-2-yl)oxy]pyridin-3-yl}pyrimidine-5-carboxamide]",CLint (+/− Std Dev) [1]: 14 +/− 1.4 μL/min/10^6 cells; Basic pKa [3]: 5.2
–,2100,"CCOc1cccnc1Oc1cncc(-c2ncc(C(=O)N[C@H]3CNCC[C@H]3C)cn2)c1 (racemic) [Example 20, rac-2-{5-[(3-ethoxypyridin-2-yl)oxy]pyridin-3-yl}-N-[(3R,4R)-4-methylpiperidin-3-yl]pyrimidine-5-carboxamide, trifluoroacetate salt]",–
–,140,"CCOc1cccnc1Oc1cncc(-c2ncc(C(=O)N[C@@H]3CNCC(F)(F)C3)cn2)c1 (single isomer, unassigned) [Example 18, N-[(3S)-5,5-difluoropiperidin-3-yl]-2-{5-[(3-ethoxypyridin-2-yl)oxy]pyridin-3-yl}pyrimidine-5-carboxamide or N-[(3R)-5,5-difluoropiperidin-3-yl]-2-{5-[(3-ethoxypyridin-2-yl)oxy]pyridin-3-yl}pyrimidine-5-carboxamide]",IC50 [5]: 20 nM
<7,590,"CCOc1cccnc1Oc1cncc(-c2ncc(C(=O)N[C@H]3CNCC[C@@H]3F)cn2)c1 [Example 12, 2-{5-[(3-ethoxypyridin-2-yl)oxy]pyridin-3-yl}-N-[(3S,4S)-4-fluoropiperidin-3-yl]pyrimidine-5-carboxamide, trifluoroacetate salt]",–
–,3300,"CCOc1cccnc1Oc1cncc(-c2ncc(C(=O)N[C@H]3CNCCC3(F)F)cn2)c1 (single isomer, unassigned) [Example 15, N-[(3S)-4,4-difluoropiperidin-3-yl]-2-{5-[(3-ethoxypyridin-2-yl)oxy]pyridin-3-yl}pyrimidine-5-carboxamide, trifluoroacetate salt or N-[(3R)-4,4-difluoropiperidin-3-yl]-2-{5-[(3-ethoxypyridin-2-yl)oxy]pyridin-3-yl}pyrimidine-5-carboxamide, trifluoroacetate salt]",–
–,14000,"CCOc1cccnc1Oc1cncc(-c2ncc(C(=O)NC3CCCNC3C)cn2)c1 (mixture of isomers) [Example 23, 2-{5-[(3-ethoxypyridin-2-yl)oxy]pyridin-3-yl}-N-(2-methylpiperidin-3-yl)pyrimidine-5-carboxamide, trifluoroacetate salt, mixture of stereoisomers]",–
–,230,"CCOc1cccnc1Oc1cncc(-c2ncc(C(=O)NC3CNCC(F)(F)C3)cn2)c1 (stereo not drawn) [Example 17, N-(5,5-difluoropiperidin-3-yl)-2-{5-[(3-ethoxypyridin-2-yl)oxy]pyridin-3-yl}pyrimidine-5-carboxamide]",–
>290,4.4,"CCOc1cccnc1Oc1cncc(-c2ncc(C(=O)NC3CCC(C(F)(F)F)NC3)cn2)c1 (single isomer, unassigned; ent-2) [Example 11, 2-{5-[(3-ethoxypyridin-2-yl)oxy]pyridin-3-yl}-N-[6-(trifluoromethyl)piperidin-3-yl]pyrimidine-5-carboxamide, trifluoroacetate salt, ENT-2]",CLint (+/− Std Dev) [1]: 38 +/− 2.0 μL/min/10^6 cells

# Continued, molecule first:
Structure (SMILES),CLint (+/− STD Dev) [2] [µL/min/mg],IC50 [4] [nM],also measured
"CCOc1cc(F)cnc1Oc1cncc(-c2ncc(C(=O)N[C@@H]3CNCC[C@@H]3F)cn2)c1.O=C(O)C(F)(F)F.O=C(O)C(F)(F)F [Example 1, 2-{5-[(3-Ethoxy-5-fluoropyridin-2-yl)oxy]pyridin-3-yl}-N-[(3R,4S)-4-fluoropiperidin-3-yl]pyrimidine-5-carboxamide, bis(trifluoroacetate) salt]",<7,5.8,CLint (+/− Std Dev) [1]: <2.7 +/− 0.72 μL/min/10^6 cells; Basic pKa [3]: 7.7
"CCOc1cccnc1Oc1cncc(-c2ncc(C(=O)N[C@H]3CNCCC3(F)F)cn2)c1 (single isomer, unassigned) [Example 16, N-[(3S)-4,4-difluoropiperidin-3-yl]-2-{5-[(3-ethoxypyridin-2-yl)oxy]pyridin-3-yl}pyrimidine-5-carboxamide, trifluoroacetate salt or N-[(3R)-4,4-difluoropiperidin-3-yl]-2-{5-[(3-ethoxypyridin-2-yl)oxy]pyridin-3-yl}pyrimidine-5-carboxamide, trifluoroacetate salt]",–,–,CLint (+/− Std Dev) ([1]; trifluoroacetate salt): 4.7 +/− 1.4 μL/min/10^6 cells; CLint (+/− STD Dev) ([2]; trifluoroacetate salt): 17 µL/min/mg
"CCOc1cccnc1Oc1cncc(-c2ncc(C(=O)N[C@@H]3CNCC[C@@H]3F)cn2)c1.O=C(O)C(F)(F)F.O=C(O)C(F)(F)F [Example 3, 2-{5-[(3-Ethoxypyridin-2-yl)oxy]pyridin-3-yl}-N-[(3R,4S)-4-fluoropiperidin-3-yl]pyrimidine-5-carboxamide, bis(trifluoroacetate) salt]",<7,40,IC50 [5]: 23 nM; CLint (+/− Std Dev) [1]: <1.9 +/− 0.35 μL/min/10^6 cells; Basic pKa [3]: 8.1
"CCOc1cc(F)cnc1Oc1cncc(-c2ncc(C(=O)N[C@H]3CNCC[C@@H]3F)cn2)c1 [Example 13, 2-{5-[(3-ethoxy-5-fluoropyridin-2-yl)oxy]pyridin-3-yl}-N-[(3S,4S)-4-fluoropiperidin-3-yl]pyrimidine-5-carboxamide, formate salt]",–,57,IC50 [5]: 3.8 nM
"CCOc1cc(F)cnc1Oc1cncc(-c2ncc(C(=O)N[C@@H]3CNCC[C@H]3F)cn2)c1 [Example 6, 2-{5-[(3-Ethoxy-5-fluoropyridin-2-yl)oxy]pyridin-3-yl}-N-[(3R,4R)-4-fluoropiperidin-3-yl]pyrimidine-5-carboxamide]",–,80,IC50 [5]: 2.4 nM
"CCOc1cccnc1Oc1cncc(-c2ncc(C(=O)NC3CCC(C(F)(F)F)NC3)cn2)c1 (single isomer, unassigned; ent-1) [Example 10, 2-{5-[(3-ethoxypyridin-2-yl)oxy]pyridin-3-yl}-N-[6-(trifluoromethyl)piperidin-3-yl]pyrimidine-5-carboxamide, trifluoroacetate salt, ENT-1]",–,39,Basic pKa [3]: 4.7
"CCOc1cccnc1Oc1cncc(-c2ncc(C(=O)N[C@H]3CC[C@H](C(F)(F)F)NC3)cn2)c1 (racemic) [Example 8, rac-2-{5-[(3-ethoxypyridin-2-yl)oxy]pyridin-3-yl}-N-[(3R,6S)-6-(trifluoromethyl)piperidin-3-yl]pyrimidine-5-carboxamide or rac-2-{5-[(3-ethoxypyridin-2-yl)oxy]pyridin-3-yl}-N-[(3R,6R)-6-(trifluoromethyl)piperidin-3-yl]pyrimidine-5-carboxamide]",–,–,Basic pKa [3]: 5.3
"CCOc1cccnc1Oc1cncc(-c2ncc(C(=O)N[C@H]3CC[C@H](C(F)(F)F)NC3)cn2)c1 (racemic) [Example 9, rac-2-{5-[(3-ethoxypyridin-2-yl)oxy]pyridin-3-yl}-N-[(3R,6S)-6-(trifluoromethyl)piperidin-3-yl]pyrimidine-5-carboxamide or rac-2-{5-[(3-ethoxypyridin-2-yl)oxy]pyridin-3-yl}-N-[(3R,6R)-6-(trifluoromethyl)piperidin-3-yl]pyrimidine-5-carboxamide]",>290,–,–
"CCOc1cc(F)cnc1Oc1cncc(-c2ncc(C(=O)N[C@@H]3CNC[C@@H](F)C3)cn2)c1 [Example 2, 2-{5-[(3-Ethoxy-5-fluoropyridin-2-yl)oxy]pyridin-3-yl}-N-[(3S,5S)-5-fluoropiperidin-3-yl]pyrimidine-5-carboxamide]",–,8.6,IC50 [5]: 4.1 nM
"CCOc1cccnc1Oc1cncc(-c2ncc(C(=O)N[C@H]3CNC[C@H](F)C3)cn2)c1 [Example 7, 2-{5-[(3-ethoxypyridin-2-yl)oxy]pyridin-3-yl}-N-[(3R,5R)-5-fluoropiperidin-3-yl]pyrimidine-5-carboxamide, trifluoroacetate salt]",–,42,–
"CCOc1cccnc1Oc1cncc(-c2ncc(C(=O)N[C@@H]3CNCC[C@H]3F)cn2)c1 [Example 5, 2-{5-[(3-Ethoxypyridin-2-yl)oxy]pyridin-3-yl}-N-[(3R,4R)-4-fluoropiperidin-3-yl]pyrimidine-5-carboxamide]",<7,110,–
